Data from PMC8776995 (Frontiers in Chemistry, 2022).
“And” between values parts separate entries of the source, which are not always exact repeats. Identical values can stand only once. Like-named read-outs stand apart in the source and are kept apart here.

How the values were obtained:
PC-9 cells [1] = assay: Hoechst 33342 staining for cell apoptosis; type: cell-based, human; conditions: PC-9, various concentrations, 48 h, vs 0.1% DMSO
Description: To further verify the impact of compounds e4 and e12 on apoptosis of NSCLC cells, PC-9 cells were treated with either compound e4 or e12 at various concentrations for 48 h and then stained with dye Hoechst 33342.
PC-9 cells were seeded in 96-well plates, then treated with 0.1% DMSO (as control) or various concentrations of compound e4 or e12 for 48 h. Culture medium from the cells was removed and replaced with medium containing dye Hoechst 33342. Cells were incubated at 37°C for 5–15 min, washed with PBS twice, and then observed and imaged under the Nikon Ti-U microscope.

H460 cells [2] = assay: Flow cytometry detection for cell cycle, H460; type: cell-based, human; conditions: for G0/G1 / G2/M / S: single experiments (20200711, 20200810, 20200812)
Description: (§1) To investigate the effects of compounds e4 and e12 on various phases of the cell cycle, PC-9 cells were treated with compound e4 or e12 of various concentrations for 24 h, and H460 cells were treated with compound e4 or e12 of various concentrations for 12 h.
(§2) PC-9 or H460 (2 × 10^5–3 × 10^5/well) cells were seeded in six-well plates for 24 h, and then treated with 0.1% DMSO (as control), various concentrations of either compound e4 or e12 for 24 h (PC-9) or 12 h (H460), respectively. The treated cells were harvested, washed with PBS, and then stained using the cell-cycle staining kit according to the manufacturer’s manual. The distribution of cell-cycle phases with different DNA contents was determined by flow cytometry (BD LSRFortessa™ Flow Cytometer) and analyzed using ModFit LT software.

PC-9 cells [3] = assay: Flow cytometry detection for cell cycle, PC-9; type: cell-based, human; conditions: for G0/G1 / G2/M / S: single repeats (Repeat 1-3)
Description: as §1, §2

A549 cells = assay: CCK-8 antiproliferation assay, A549; conditions: for Inhibitory efficacy: A549 cells
[4] = test system: EGFR phosphorylation (Tyr1068) in PC-9 cells; assay: Western blot, p-EGFR/EGFR in PC-9; conditions: for p-EGFR/EGFR: band density ratio; for p-EGFR/EGFR relative to DMSO: ratio normalised to DMSO = 1
Description: (§3) We also performed western blot analysis to evaluate the impact of e4 and e12 on EGFR signaling in PC-9 and H460 cells.
(§4) H460 cells were seeded in six-well plates with serum-free medium overnight, and then treated complete medium containing 0.1% DMSO, various concentrations (0.1, 1 and 10 μM) of either compound e4 or e12 for 2 h, respectively. […] Then the H460 cells were treated with complete medium containing EGF (10 ng/ml) for 5 min. Then the cells were harvested and washed with PBS, centrifuged, resuspended in 100–200 μl of RIPA lysis buffer containing Protease and Phosphatase Inhibitor Cocktail (1X), and then centrifuged for 5 min at 12,000 rpm at 4°C. The supernatant was used for protein analysis. […] Then the membrane was washed 5 min (X3) and incubated at 1:3,000 dilution of anti-rabbit secondary antibodies or 1:1,000 dilution of anti-mouse secondary antibodies for 1 h at RT. After washing with TBST 5 min (X3), protein bands were developed by chemiluminescence. The protein levels were quantified by the gray values of the bands in the resulting images by ImageJ, and the control group was used as the standard. […] The PC-9 cells were harvested and analyzed as above.

[5] = test system: EGFR phosphorylation (Tyr1068) in H460 cells; assay: Western blot, p-EGFR/EGFR in H460; conditions: for p-EGFR/EGFR: band density ratio; for p-EGFR/EGFR relative to DMSO: ratio normalised to DMSO
Description: as §3, §4

wild-type EGFR = wild-type EGFR (Homo sapiens, UniProt P00533); assay: EGFR kinase assay (ELISA); conditions: for A450: raw ELISA absorbance
H460 cells [6] = assay: CCK-8 antiproliferation assay, H460; conditions: given as fraction, Repeat 1-3; for Inhibitory efficacy: H460 cells
H1975 cells = assay: CCK-8 antiproliferation assay, H1975; conditions: for Inhibitory efficacy: H1975 cells
Description: The compounds were dissolved in DMSO to make a 20 μM stock solution and diluted to the concentration of working solutions with complete growth medium before administration.
Cells were seeded in 96-well plates: 3,000–5,000 cells/well in 100 ul. One day after seeding, the test compounds at concentration between 1.0 and 16.0 μ M or 0.1% DMSO (as control) were added to cells in triplicate. 48 h later, CCK-8 was added and incubated the plate for 1–4 h in the incubator. The absorbance at 450 nm were measured using a microplate reader (Bio-Tek).

[7] = 1uM, given as fraction, Repeat 1-3
[8] = 2uM, given as fraction, Repeat 1-3
[9] = 4uM, given as fraction, Repeat 1-3
[10] = 8uM, given as fraction, Repeat 1-3
[11] = 16uM, given as fraction, Repeat 1-3

wild-type EGFR, sequence (P00533 25-1210): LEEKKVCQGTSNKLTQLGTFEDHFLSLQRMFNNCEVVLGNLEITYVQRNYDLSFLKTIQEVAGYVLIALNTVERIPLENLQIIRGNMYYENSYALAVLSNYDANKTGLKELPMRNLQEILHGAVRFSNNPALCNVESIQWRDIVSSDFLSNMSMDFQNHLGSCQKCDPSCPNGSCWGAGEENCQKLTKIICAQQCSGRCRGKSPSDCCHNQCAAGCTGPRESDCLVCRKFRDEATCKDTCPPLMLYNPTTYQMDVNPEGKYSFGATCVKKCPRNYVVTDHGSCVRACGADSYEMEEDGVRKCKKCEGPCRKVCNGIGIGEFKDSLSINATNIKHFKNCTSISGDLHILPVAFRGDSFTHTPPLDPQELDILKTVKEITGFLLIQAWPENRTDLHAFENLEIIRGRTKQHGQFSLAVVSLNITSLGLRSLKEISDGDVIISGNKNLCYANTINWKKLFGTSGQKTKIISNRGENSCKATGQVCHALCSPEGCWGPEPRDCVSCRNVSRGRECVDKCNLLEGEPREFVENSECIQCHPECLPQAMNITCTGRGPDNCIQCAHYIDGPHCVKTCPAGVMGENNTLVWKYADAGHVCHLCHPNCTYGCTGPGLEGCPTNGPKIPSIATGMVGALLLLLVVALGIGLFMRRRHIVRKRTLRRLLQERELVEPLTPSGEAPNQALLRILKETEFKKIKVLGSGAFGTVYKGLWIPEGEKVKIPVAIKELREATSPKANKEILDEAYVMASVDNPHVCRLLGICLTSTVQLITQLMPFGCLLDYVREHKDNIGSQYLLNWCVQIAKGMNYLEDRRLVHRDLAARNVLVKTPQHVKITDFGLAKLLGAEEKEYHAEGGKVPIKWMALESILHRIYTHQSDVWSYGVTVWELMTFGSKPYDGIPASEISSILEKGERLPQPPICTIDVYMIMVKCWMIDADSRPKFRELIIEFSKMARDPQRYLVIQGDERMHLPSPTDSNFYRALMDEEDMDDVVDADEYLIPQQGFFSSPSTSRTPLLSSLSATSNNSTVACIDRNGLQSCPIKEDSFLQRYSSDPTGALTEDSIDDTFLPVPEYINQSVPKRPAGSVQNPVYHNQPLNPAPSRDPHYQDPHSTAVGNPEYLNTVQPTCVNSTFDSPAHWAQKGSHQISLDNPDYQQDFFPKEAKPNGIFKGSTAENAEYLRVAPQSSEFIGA

`COCCOc1cc2ncnc(Nc3cccc(-c4cn(-c5ccc(C)cc5)nn4)c3)c2cc1OCCOC` [e12, [6,7-Bis-(2-methoxy-ethoxy)-quinazolin-4-yl]-[3-(1-p-tolyl-1H-[1,2,3]triazol-4-yl)-phenyl]-amine] was tested, and the “apoptotic morphology, Hoechst 33342 staining” value (PC-9 cells [1]) was “exhibited features typical of apoptosis”, the G0/G1 (H460 cells [2]; H460, 4uM) was 46.77% and 59.95% and the G2/M (H460 cells [2]; H460, 4uM) was 19.08% and 18.32% and 13.33%. For the same compound, the S (H460 cells [2]; H460, 4uM) was 34.15% and 35.36% and 26.72%, the G0/G1 (H460 cells [2]; H460, 8uM) was 49.59% and 63.38% and the G2/M (H460 cells [2]; H460, 8uM) was 16.88% and 18.32% and 11.47%. The S (H460 cells [2]; H460, 8uM) was 33.54% and 35.36% and 25.15%, the G0/G1 (H460 cells [2]; H460, 12uM) was 47.32% and 46.51% and 62.09% and the S (H460 cells [2]; H460, 12uM) was 32.63% and 19.41% and 25.2%. The “percentage of cells in the G0/G1 phase” value (H460 cells [2]; H460, various concentrations, 12 h) was “induced higher percentages”, the G0/G1 (PC-9 cells [3]; PC-9, 4uM) was 56.16 and 54.85 and 57.63 and the G2/M (PC-9 cells [3]; PC-9, 4uM) was 17.84 and 17.98 and 15.19. The S (PC-9 cells [3]; PC-9, 4uM) was 26.01 and 27.17 and 27.19, the G0/G1 (PC-9 cells [3]; PC-9, 8uM) was 53.08 and 54.06 and 56.12 and the G2/M (PC-9 cells [3]; PC-9, 8uM) was 20.06 and 19.34 and 16.67. The S (PC-9 cells [3]; PC-9, 8uM) was 26.86 and 26.6 and 27.1, the G0/G1 (PC-9 cells [3]; PC-9, 12uM) was 56.88 and 57.79 and 60.22 and the G2/M (PC-9 cells [3]; PC-9, 12uM) was 21.27 and 20.78 and 17.44. The S (PC-9 cells [3]; PC-9, 12uM) was 21.85 and 21.43 and 22.34, the “percentage of cells in the G0/G1 phase” value (PC-9 cells [3]; PC-9, various concentrations, 24 h) was “induced higher percentages” and the Inhibitory efficacy (A549 cells; [7]) was 0.1461 and 0.1139. The Inhibitory efficacy (A549 cells; [8]) was 0.3261 and 0.1967, the Inhibitory efficacy (A549 cells; [9]) was 0.4378 and 0.3806 and the Inhibitory efficacy (A549 cells; [10]) was 0.5646 and 0.5114. The Inhibitory efficacy (A549 cells; [11]) was 0.7887 and 0.7821, the IC50 (A549 cells; Homo sapiens, A549, 48 h, read-out: IC50 (μM) A549, CCK-8, 48 h, average ± SD of three independent experiments) was less than 10 µM and the inhibition at 1 µM (A549 cells; Homo sapiens, A549, read-out: Inhibitory efficacy, A549 cells, 1uM, given as fraction, Repeat 1-3) was 9.61%. For the same compound, the inhibition at 2 µM (A549 cells; Homo sapiens, A549, read-out: Inhibitory efficacy, A549 cells, 2uM, given as fraction, Repeat 1-3) was 26.8%, the inhibition at 4 µM (A549 cells; Homo sapiens, A549, read-out: Inhibitory efficacy, A549 cells, 4uM, given as fraction, Repeat 1-3) was 37.9% and the inhibition at 8 µM (A549 cells; Homo sapiens, A549, read-out: Inhibitory efficacy, A549 cells, 8uM, given as fraction, Repeat 1-3) was 51.9%. It also gave an inhibition at 16 µM (A549 cells; Homo sapiens, A549, read-out: Inhibitory efficacy, A549 cells, 16uM, given as fraction, Repeat 1-3) of 78.5%, an IC50 (A549 cells; read-out: IC50 (μM) A549, CCK-8, 48 h, average ± SD of three independent experiments) of 5.91 ± 0.73 µM and a p-EGFR/EGFR ([4]; PC-9, 0.1 uM) of 1.065. For the same compound, the “p-EGFR/EGFR relative to DMSO” value ([4]; PC-9, 0.1 uM) was 0.9518, the p-EGFR/EGFR ([4]; PC-9, 1 uM) was 0.9522 and the “p-EGFR/EGFR relative to DMSO” value ([4]; PC-9, 1 uM) was 0.8509. For the same compound, the p-EGFR/EGFR ([4]; PC-9, 10 uM) was 0.4177, the “p-EGFR/EGFR relative to DMSO” value ([4]; PC-9, 10 uM) was 0.3732 and the “phosphorylation of EGFR (western blot)” value ([4]; PC-9, especially at 10 μM) was “suppressed”. The p-EGFR/EGFR ([5]; H460, 0.1 uM) was 0.7896, the “p-EGFR/EGFR relative to DMSO” value ([5]; H460, 0.1 uM) was 0.9489 and the p-EGFR/EGFR ([5]; H460, 1 uM) was 0.75. For the same compound, the “p-EGFR/EGFR relative to DMSO” value ([5]; H460, 1 uM) was 0.9013, the p-EGFR/EGFR ([5]; H460, 10 uM) was 0.166 and the “p-EGFR/EGFR relative to DMSO” value ([5]; H460, 10 uM) was 0.1995. The “phosphorylation of EGFR (western blot)” value ([5]; H460, especially at 10 μM) was “suppressed”, the IC50 (wild-type EGFR; IC50 (μM) EGFR, ELISA, 3 μmol/L ATP) was 1.76 µM and the inhibition at 100 fM (wild-type EGFR; concentration 0.0001 nM (reference for normalisation), one value per replicate column) was 0%. The inhibition at 30 pM (wild-type EGFR; concentration 0.03 nM, one value per replicate column) was 8.63%, the Inhibition (wild-type EGFR; concentration 0.03 nM, one value per replicate column, 3e-05 µM) was 6.151 and the inhibition at 0.0003 µM (wild-type EGFR; concentration 0.3 nM, one value per replicate column) was 9.04%. The Inhibition (wild-type EGFR; concentration 0.3 nM, one value per replicate column, 0.0003 µM) was 14.0873, the inhibition at 0.003 µM (wild-type EGFR; concentration 3 nM, one value per replicate column) was 9.24% and the Inhibition (wild-type EGFR; concentration 3 nM, one value per replicate column, 0.003 µM) was 16.0714. The inhibition at 0.03 µM (wild-type EGFR; concentration 30 nM, one value per replicate column) was 16.1%, the Inhibition (wild-type EGFR; concentration 30 nM, one value per replicate column, 0.03 µM) was 18.4524 and the inhibition at 0.3 µM (wild-type EGFR; concentration 300 nM, one value per replicate column) was 20.3%. The Inhibition (wild-type EGFR; concentration 300 nM, one value per replicate column, 0.3 µM) was 32.1429, the inhibition at 3 µM (wild-type EGFR; concentration 3000 nM, one value per replicate column) was 50.8% and the Inhibition (wild-type EGFR; concentration 3000 nM, one value per replicate column, 3 µM) was 50.5952. For the same compound, the inhibition at 30 µM (wild-type EGFR; concentration 30000 nM, one value per replicate column) was 85.5%, the Inhibition (wild-type EGFR; concentration 30000 nM, one value per replicate column, 30 µM) was 85.9127 and the A450 (wild-type EGFR; concentration 0.0001 nM) was 0.655 and 0.663. The A450 (wild-type EGFR; concentration 0.03 nM) was 0.612 and 0.632, the A450 (wild-type EGFR; concentration 0.3 nM) was 0.61 and 0.592 and the A450 (wild-type EGFR; concentration 3 nM) was 0.609 and 0.582. The A450 (wild-type EGFR; concentration 30 nM) was 0.575 and 0.57, the A450 (wild-type EGFR; concentration 300 nM) was 0.554 and 0.501 and the A450 (wild-type EGFR; concentration 3000 nM) was 0.402 and 0.408. The A450 (wild-type EGFR; concentration 30000 nM) was 0.229 and 0.23, the Inhibitory efficacy (H460 cells [6]; 1uM) was 0.2117 and 0.1598 and the Inhibitory efficacy (H460 cells [6]; 2uM) was 0.3397 and 0.3411. The Inhibitory efficacy (H460 cells [6]; 4uM) was 0.5452 and 0.4421, the Inhibitory efficacy (H460 cells [6]; 8uM) was 0.667 and 0.5743 and the Inhibitory efficacy (H460 cells [6]; 16uM) was 0.9091 and 0.887. For the same compound, the inhibition at 1 µM (H460 cells [6]; Homo sapiens, NCI-H460, read-out: Inhibitory efficacy, H460 cells, 1uM) was 16.7%, the inhibition at 2 µM (H460 cells [6]; Homo sapiens, NCI-H460, read-out: Inhibitory efficacy, H460 cells, 2uM) was 36.8% and the inhibition at 4 µM (H460 cells [6]; Homo sapiens, NCI-H460, read-out: Inhibitory efficacy, H460 cells, 4uM) was 58.9%. For the same compound, the inhibition at 8 µM (H460 cells [6]; Homo sapiens, NCI-H460, read-out: Inhibitory efficacy, H460 cells, 8uM) was 65.1%, the inhibition at 16 µM (H460 cells [6]; Homo sapiens, NCI-H460, read-out: Inhibitory efficacy, H460 cells, 16uM) was 88.9% and the Inhibitory efficacy (H1975 cells; [7]) was 0.1624 and 0.1374. The Inhibitory efficacy (H1975 cells; [8]) was 0.2034 and 0.2177, the Inhibitory efficacy (H1975 cells; [9]) was 0.2052 and 0.2481 and the Inhibitory efficacy (H1975 cells; [10]) was 0.4158 and 0.4836. For the same compound, the Inhibitory efficacy (H1975 cells; [11]) was 0.8709 and 0.8763, the IC50 (H1975 cells; Homo sapiens, NCI-H1975, 48 h, read-out: IC50 (μM) H1975, CCK-8, 48 h, average ± SD of three independent experiments) was less than 10 µM and the inhibition at 1 µM (H1975 cells; Homo sapiens, NCI-H1975, read-out: Inhibitory efficacy, H1975 cells, 1uM, given as fraction, Repeat 1-3) was 18.4%. It also gave an inhibition at 2 µM (H1975 cells; Homo sapiens, NCI-H1975, read-out: Inhibitory efficacy, H1975 cells, 2uM, given as fraction, Repeat 1-3) of 28.9%, an inhibition at 4 µM (H1975 cells; Homo sapiens, NCI-H1975, read-out: Inhibitory efficacy, H1975 cells, 4uM, given as fraction, Repeat 1-3) of 23.2% and an inhibition at 8 µM (H1975 cells; Homo sapiens, NCI-H1975, read-out: Inhibitory efficacy, H1975 cells, 8uM, given as fraction, Repeat 1-3) of 40.7%. The inhibition at 16 µM (H1975 cells; Homo sapiens, NCI-H1975, read-out: Inhibitory efficacy, H1975 cells, 16uM, given as fraction, Repeat 1-3) was 87.6% and the IC50 (H1975 cells; read-out: IC50 (μM) H1975, CCK-8, 48 h, average ± SD of three independent experiments) was 7.25 ± 0.45 µM.
